The source of these data is ChEMBL document CHEMBL4476867, “Hydroxy formamide derivatives and their use” (2016).

Structures are written as SMILES. A value given as a limit tells only on which side of the number the result lay.

Experiment [1] deals with T1, Bone morphogenetic protein 1 (Homo sapiens, UniProt P13497).
T1 sequence (P13497 whole entry): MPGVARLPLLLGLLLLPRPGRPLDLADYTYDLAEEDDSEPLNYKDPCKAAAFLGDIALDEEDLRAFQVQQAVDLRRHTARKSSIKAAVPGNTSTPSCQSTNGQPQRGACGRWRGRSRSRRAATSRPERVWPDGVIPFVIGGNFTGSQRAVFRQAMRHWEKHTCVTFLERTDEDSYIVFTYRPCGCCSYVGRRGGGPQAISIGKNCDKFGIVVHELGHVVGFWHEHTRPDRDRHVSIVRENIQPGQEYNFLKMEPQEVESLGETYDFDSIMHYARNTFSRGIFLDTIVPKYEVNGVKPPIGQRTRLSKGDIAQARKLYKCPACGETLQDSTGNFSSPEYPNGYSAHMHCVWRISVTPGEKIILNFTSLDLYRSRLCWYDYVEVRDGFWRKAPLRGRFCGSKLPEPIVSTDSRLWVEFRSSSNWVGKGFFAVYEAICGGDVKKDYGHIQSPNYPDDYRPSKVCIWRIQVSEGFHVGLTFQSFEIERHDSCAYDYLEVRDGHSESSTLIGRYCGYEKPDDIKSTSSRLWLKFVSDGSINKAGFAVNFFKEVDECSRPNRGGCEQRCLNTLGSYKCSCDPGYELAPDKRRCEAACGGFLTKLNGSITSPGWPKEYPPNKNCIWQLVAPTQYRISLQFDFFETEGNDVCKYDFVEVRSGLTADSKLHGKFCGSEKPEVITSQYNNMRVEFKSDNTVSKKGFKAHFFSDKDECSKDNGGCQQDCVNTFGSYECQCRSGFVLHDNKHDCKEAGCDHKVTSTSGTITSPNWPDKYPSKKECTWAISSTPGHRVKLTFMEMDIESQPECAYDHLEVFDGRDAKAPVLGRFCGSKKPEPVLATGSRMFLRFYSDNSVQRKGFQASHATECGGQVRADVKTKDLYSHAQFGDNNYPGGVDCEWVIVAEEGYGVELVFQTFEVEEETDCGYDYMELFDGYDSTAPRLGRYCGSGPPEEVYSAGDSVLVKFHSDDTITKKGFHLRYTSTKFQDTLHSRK
Description: Inhibition of C-terminal FLAG-6x-His epitope tagged and N-terminal human RAGE signal sequence tagged human BMP1 (23 to 721 amino acids) expressed in CHO-E1 cells pre-incubated for 10 mins before promyostatin peptide substrate addition and measured after 60 mins using 0.5 nM BMP1 by FRET based assay. The experiment is classed as cell-based.

Experiment [2] has as its target T1, Bone morphogenetic protein 1. Description: Inhibition of C-terminal FLAG-6x-His epitope tagged and N-terminal human RAGE signal sequence tagged human BMP1 (23 to 721 amino acids) expressed in CHO-E1 cells pre-incubated for 10 mins before promyostatin peptide substrate addition and measured after 30 mins using 50 nM BMP1 by FRET based assay. The experiment is classed as cell-based.

In a further experiment the target is Tolloid-like protein 1 (Homo sapiens, UniProt O43897, I156V/N221S/V284A). Description: Inhibition of recombinant human TLL1 I156V/N221S/V284A mutant expressed in CHOE1A cells pre-incubated for 10 mins before promyostatin peptide substrate addition and measured after 60 mins by FRET based assay. The experiment is classed as cell-based.
Sequence of Tolloid-like protein 1 (O43897 148-1013 I156V/N221S/V284A limits assumed): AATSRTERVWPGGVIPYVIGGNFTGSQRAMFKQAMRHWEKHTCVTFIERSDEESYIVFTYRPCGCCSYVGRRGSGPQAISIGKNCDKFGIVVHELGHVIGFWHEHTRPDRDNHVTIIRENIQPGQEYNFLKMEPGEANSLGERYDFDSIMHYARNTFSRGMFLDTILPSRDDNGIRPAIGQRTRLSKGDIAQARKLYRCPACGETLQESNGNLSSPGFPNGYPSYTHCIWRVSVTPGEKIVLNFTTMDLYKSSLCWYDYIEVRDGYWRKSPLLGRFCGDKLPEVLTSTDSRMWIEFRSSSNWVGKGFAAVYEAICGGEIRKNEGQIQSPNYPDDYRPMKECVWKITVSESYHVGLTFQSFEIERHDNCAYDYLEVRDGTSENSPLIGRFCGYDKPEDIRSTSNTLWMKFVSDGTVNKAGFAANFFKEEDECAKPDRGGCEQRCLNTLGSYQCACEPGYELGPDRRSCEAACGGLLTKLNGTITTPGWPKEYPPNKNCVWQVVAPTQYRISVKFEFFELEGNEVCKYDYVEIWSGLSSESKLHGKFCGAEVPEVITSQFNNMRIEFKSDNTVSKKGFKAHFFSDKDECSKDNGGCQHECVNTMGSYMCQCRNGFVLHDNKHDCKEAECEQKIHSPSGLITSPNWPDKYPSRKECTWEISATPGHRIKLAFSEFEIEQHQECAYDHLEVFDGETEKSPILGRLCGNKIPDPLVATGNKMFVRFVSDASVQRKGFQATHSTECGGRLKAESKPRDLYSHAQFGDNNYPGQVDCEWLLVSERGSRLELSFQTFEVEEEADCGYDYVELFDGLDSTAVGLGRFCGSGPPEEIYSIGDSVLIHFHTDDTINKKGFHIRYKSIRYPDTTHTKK
In another experiment the target is T2, Tolloid-like protein 2 (Homo sapiens, UniProt Q9Y6L7).
T2 sequence (Q9Y6L7 whole entry): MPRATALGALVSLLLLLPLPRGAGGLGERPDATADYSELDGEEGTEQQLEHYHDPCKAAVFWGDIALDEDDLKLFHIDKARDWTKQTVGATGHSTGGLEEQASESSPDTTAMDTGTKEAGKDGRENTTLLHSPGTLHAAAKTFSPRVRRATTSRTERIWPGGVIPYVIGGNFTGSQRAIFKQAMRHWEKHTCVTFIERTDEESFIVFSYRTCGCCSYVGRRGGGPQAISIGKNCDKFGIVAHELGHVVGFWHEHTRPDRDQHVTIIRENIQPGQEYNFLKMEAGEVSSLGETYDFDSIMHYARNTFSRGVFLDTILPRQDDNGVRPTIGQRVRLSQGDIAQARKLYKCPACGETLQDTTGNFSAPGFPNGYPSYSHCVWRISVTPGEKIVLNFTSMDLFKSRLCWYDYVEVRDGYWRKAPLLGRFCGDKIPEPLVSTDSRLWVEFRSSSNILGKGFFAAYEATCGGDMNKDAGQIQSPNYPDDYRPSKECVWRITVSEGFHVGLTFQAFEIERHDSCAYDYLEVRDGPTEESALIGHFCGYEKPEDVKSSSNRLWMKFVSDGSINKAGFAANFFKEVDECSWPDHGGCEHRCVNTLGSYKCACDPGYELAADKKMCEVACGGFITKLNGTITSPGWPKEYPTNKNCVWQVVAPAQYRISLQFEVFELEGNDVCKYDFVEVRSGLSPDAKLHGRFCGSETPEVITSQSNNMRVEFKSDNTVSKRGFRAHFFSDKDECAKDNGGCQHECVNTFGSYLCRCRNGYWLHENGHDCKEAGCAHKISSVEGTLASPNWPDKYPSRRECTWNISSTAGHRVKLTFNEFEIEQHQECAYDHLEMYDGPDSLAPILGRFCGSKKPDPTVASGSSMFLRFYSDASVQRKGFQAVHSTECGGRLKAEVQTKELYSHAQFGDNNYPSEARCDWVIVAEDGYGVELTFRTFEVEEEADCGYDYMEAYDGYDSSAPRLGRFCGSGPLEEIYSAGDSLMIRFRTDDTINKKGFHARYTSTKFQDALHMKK
Description: Inhibition of C-terminal Avi-6x-His epitope tagged and N-terminal human RAGE signal sequence tagged recombinant human TLL2 (26 to 1015 amino acids) expressed in CHOE1A cells incubated for 60 mins with promyostatin peptide substrate by FRET based assay. The experiment is classed as cell-based.

The nature of experiment [3]: Reduction in PICP levels in human cardiac fibroblasts incubated for 24 to 48 hrs by ELISA. The experiment is classed as functional. The essentials:
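Procollagen I C-terminal propeptide in the culture medium was quantified using a Quidel ELISA. The cells were human cardiac fibroblasts of passage 6 or below, seeded at 10,000 to 15,000 cells per well in 96-well plates and treated the next day in ficoll crowding EMEM with 100 μM ascorbic acid and under 0.3% DMSO. Treatment lasted 24 to 48 hr at 37° C. For IC50, levels normalized to untreated controls were fitted to a log(inhibitor)-response equation in GraphPad Prism.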

For the compound `CCCCC[C@@H](C(=O)NCNC(=O)c1ccc(-c2ccc(C(=O)N[C@H](CC(=O)O)C(=O)O)cc2)o1)[C@@H](CC)N(O)C=O`, the IC50 (as a rule, the concentration at which inhibition is half-maximal) is less than 126 nM in experiment [1]; less than 200 nM in experiment [2]; less than 398 nM at Tolloid-like protein 1; less than 794 nM on Tolloid-like protein 2; less than 3980 nM in experiment [3].

Turning to `CCCCC[C@@H](C(=O)NCNC(=O)c1ccc(-c2ccc(C(=O)O)c(CC(=O)O)c2)o1)[C@@H](CC)N(O)C=O`, the 50% inhibitory concentration (IC50) is less than 126 nM in experiment [1]; less than 200 nM in experiment [2]; less than 398 nM on Tolloid-like protein 1; less than 794 nM on Tolloid-like protein 2; less than 3980 nM in experiment [3].

For `CCCCC[C@H](CN(O)C=O)C(=O)NCNC(=O)c1ccc(-c2cccc(SCC)c2)o1`, the IC50 in experiment [1] is less than 126 nM; in experiment [2] it was less than 200 nM; on Tolloid-like protein 1, less than 398 nM; at Tolloid-like protein 2, less than 794 nM; in experiment [3], less than 3980 nM.

Regarding `CCCCC[C@@H](C(=O)NCNC(=O)c1ccc(-c2ccc(C(=O)N[C@@H](CC(=O)O)C(=O)O)c(C)c2)o1)[C@@H](CC)N(O)C=O`, the IC50 in experiment [1] was less than 126 nM; in experiment [2] it was less than 200 nM; on Tolloid-like protein 1, less than 398 nM; on Tolloid-like protein 2, less than 794 nM; in experiment [3], less than 3980 nM.

Turning to `CCCCC[C@@H](C(=O)NCNC(=O)c1ccc(-c2cc(OCC(N)=O)cc(C(=O)O)c2)o1)[C@@H](CC)N(O)C=O`, the IC50 in experiment [1] is less than 126 nM; in experiment [2], less than 200 nM; on Tolloid-like protein 1, less than 398 nM; at Tolloid-like protein 2, less than 794 nM; in experiment [3], less than 3980 nM.

For `CCCCC[C@@H](C(=O)NCNC(=O)c1ccc(-c2ccc(C(=O)N[C@@H](CCC(=O)O)C(=O)O)cc2)o1)[C@@H](CC)N(O)C=O`, the IC50 in experiment [1] is less than 126 nM; in experiment [2], less than 200 nM; at Tolloid-like protein 1 it was less than 398 nM; on Tolloid-like protein 2, less than 794 nM; in experiment [3] it was less than 3980 nM.

Take `CCCCC[C@@H](C(=O)NCNC(=O)c1ccc(-c2cc(OCC(=O)O)cc(C(=O)N[C@@H](CC(=O)O)C(=O)O)c2)o1)[C@@H](CC)N(O)C=O`: the IC50 in experiment [1] was less than 126 nM; in experiment [2], less than 200 nM; at Tolloid-like protein 1 it was less than 398 nM; on Tolloid-like protein 2, less than 794 nM; in experiment [3] it was less than 3980 nM.

On to `CCCCC[C@H](CN(O)C=O)C(=O)NCNC(=O)c1ccc(-c2cccc([N+](=O)[O-])c2)o1`, for which the concentration for half-maximal inhibition (IC50) in experiment [1] was less than 126 nM; in experiment [2] it was less than 200 nM; on Tolloid-like protein 1, less than 398 nM; at Tolloid-like protein 2 it was less than 794 nM; in experiment [3], less than 3980 nM.

In the case of `CCCCC[C@H](CN(O)C=O)C(=O)NCNC(=O)c1ccc(-c2cccc(OCC(F)F)c2)o1`, the half-maximal inhibitory concentration (IC50) in experiment [1] was less than 126 nM; in experiment [2], less than 200 nM; on Tolloid-like protein 1 it was less than 398 nM; at Tolloid-like protein 2, less than 794 nM; in experiment [3], less than 3980 nM.

For the compound `CCCCC[C@@H](C(=O)NCNC(=O)c1ccc(-c2ccc(C(=O)O)c(C(=O)O)c2)o1)[C@@H](CC)N(O)C=O`, the IC50 in experiment [1] is less than 126 nM; in experiment [2] it was less than 200 nM; on Tolloid-like protein 1 it was less than 398 nM; on Tolloid-like protein 2 it was less than 794 nM; in experiment [3], less than 3980 nM.

As for `CCCCC[C@@H](C(=O)NCNC(=O)c1ccc(-c2ccc(C(=O)N[C@@H](CCC(=O)O)C(=O)O)c(OCC)c2)o1)[C@@H](CC)N(O)C=O`, the IC50 is less than 126 nM in experiment [1]; less than 200 nM in experiment [2]; less than 398 nM on Tolloid-like protein 1; less than 794 nM on Tolloid-like protein 2; less than 3980 nM in experiment [3].

Turning to `CCCCC[C@@H](C(=O)NCNC(=O)c1ccc(-c2cc(CN(C)CC(=O)O)cc(OCC)c2)o1)[C@@H](CC)N(O)C=O`, the 50% inhibitory concentration (IC50) was less than 126 nM in experiment [1]; less than 200 nM in experiment [2]; less than 398 nM at Tolloid-like protein 1; less than 794 nM at Tolloid-like protein 2; less than 3980 nM in experiment [3].

On to `CCOc1cc(C(=O)O)c(O)c(-c2ccc(C(=O)NCNC(=O)[C@H](CCc3ccccc3)[C@@H](CC)N(O)C=O)o2)c1`, for which the IC50 in experiment [1] is less than 126 nM; in experiment [2], less than 200 nM; at Tolloid-like protein 1, less than 398 nM; at Tolloid-like protein 2, less than 794 nM; in experiment [3] it was less than 3980 nM.

Turning to `CCCCC[C@H](CN(O)C=O)C(=O)NCNC(=O)c1ccc(-c2cccc(P(=O)(O)O)c2)o1`, the IC50 in experiment [1] is less than 126 nM; in experiment [2], less than 200 nM; at Tolloid-like protein 1, less than 398 nM; at Tolloid-like protein 2 it was less than 794 nM; in experiment [3], less than 3980 nM.

On to `CCCCC[C@@H](C(=O)NCNC(=O)c1ccc(-c2ccc(C(=O)N[C@@H](CC(=O)O)C(=O)O)cc2)o1)[C@@H](CC)N(O)C=O`, for which the half-inhibitory concentration (IC50) was less than 126 nM in experiment [1]; less than 200 nM in experiment [2]; less than 398 nM at Tolloid-like protein 1; less than 794 nM on Tolloid-like protein 2; less than 3980 nM in experiment [3].

Regarding `CCOc1cc(-c2ccc(C(=O)NCNC(=O)[C@H](CCc3ccc4ccccc4c3)[C@@H](CC)N(O)C=O)o2)ccc1C(=O)N[C@@H](CC(=O)O)C(=O)O`, the 50% inhibitory concentration (IC50) in experiment [1] is less than 126 nM; in experiment [2] it was less than 200 nM; on Tolloid-like protein 1, less than 398 nM; on Tolloid-like protein 2, less than 794 nM; in experiment [3], less than 3980 nM.

Regarding `CC[C@H]([C@@H](CCc1ccc(F)cc1F)C(=O)NCNC(=O)c1ccc(-c2cc(OCC(=O)O)cc(C(=O)O)c2O)o1)N(O)C=O`, the IC50 in experiment [1] is less than 126 nM; in experiment [2], less than 200 nM; at Tolloid-like protein 1, less than 398 nM; at Tolloid-like protein 2, less than 794 nM; in experiment [3], less than 3980 nM.

For `CCCCC[C@H](CN(O)C=O)C(=O)NCNC(=O)c1ccc(-c2cccc(SC)c2)o1`, the IC50 in experiment [1] is less than 126 nM; in experiment [2] it was less than 200 nM; on Tolloid-like protein 1, less than 398 nM; on Tolloid-like protein 2, less than 794 nM; in experiment [3] it was less than 3980 nM.

On to `CCCCC[C@@H](C(=O)NCNC(=O)c1ccc(-c2cc(OCC)cc(P(=O)(O)OC)c2)o1)[C@@H](CC)N(O)C=O`, for which the 50% inhibitory concentration (IC50) in experiment [1] was less than 126 nM; in experiment [2], less than 200 nM; on Tolloid-like protein 1, less than 398 nM; on Tolloid-like protein 2 it was less than 794 nM; in experiment [3], less than 3980 nM.

Consider `CCCCC[C@H](CN(O)C=O)C(=O)NCNC(=O)c1ccc(-c2ccc3cnn(C)c3c2)o1`, for which the IC50 was less than 126 nM in experiment [1]; less than 200 nM in experiment [2]; less than 398 nM on Tolloid-like protein 1; less than 794 nM at Tolloid-like protein 2; less than 3980 nM in experiment [3].
